The record followed here is patent US11414378B2, “Anti-fungals compounds targeting the synthesis of fungal sphingolipids” (THE RESEARCH FOUNDATION FOR THE STATE UNIVERSITY OF NEW YORK, priority 2017, dated 2022).

Converted amounts (≈) assume the structure as drawn.

What is called MIC is the lowest concentration found to suppress growth. Low readings indicate a more susceptible organism, high ones a less susceptible organism. By IC80 is commonly meant the point of the concentration-response curve where the effect stands at 80%. As usually defined, the MIC80 is the lowest concentration that inhibits either 80% of growth or 80% of the strains tested, depending on the study. The melting point is the temperature, or range, at which the solid turns liquid.

The subject of series [1] is C. neoformans. In words: In vitro susceptibility testing (MIC / IC80). The class given is cell-based, Cryptococcus neoformans. Conditions: for MIC: Example 2 table; for IC80: Cryptococcus neoformans, Tables 1-3. On the procedure:
Minimal inhibitory concentration (MIC) was determined following the methods of the Clinical Laboratory Standards Institutes (CLSI) with modifications. MIC studies used either RPMI or YNB medium (pH 7.0, 0.2% glucose) buffered with HEPES. […] The compound was serially diluted from 32 to 0.03 μg/ml or 19 to 0.02 μg/ml respectively in a 96 well plate with the respective medium. The yeast inoculum was prepared as described in the CLSI protocol M27-A3 guidelines. Plates were incubated at 37° C. and in the presence of 5% CO2 for 24-96 hours. Against all fungal isolates used in the initial susceptibility screen, the MICs were determined as the lowest concentration of the drug that inhibited 50% of growth compared to the control. MIC80 and MIC100, whose drug concentrations inhibited 80% and 100% growth compared to the control respectively, were also determined. For antibacterial activity, E. coli DH5a and P. aeruginosa PA14 were grown overnight in Luria Bertani (LB) broth at 30° C. The cells were washed with PBS and counted. Then, 300 μL from 2×10^8 cells/mL was spreaded onto LB agar plate using a hockey stick glass spreader. The plate was dried, and wells were punched out using a cut tip. Fifty microliters of different drug concentration was added to the well. The plate was then incubated at 30° C. for 24 hours.

Series [2] relates to C. neoformans. In words: In vitro killing assay (killing curve, Kapp, 48H killing). Conditions: for Kapp*: Kapp = K0 − Ki (C − Ci), killing curve versus MIC; for Kill characteristics: FIG. 1A / FIG. 1B. The series is classed as cell-based, Cryptococcus neoformans. On the procedure: From an overnight culture, C. neoformans cells were washed in PBS, resuspended in YNB buffered with HEPES at pH 7.4. Cells were counted and 2×10^4 cells were incubated with either 1, 2 or 4 μg/ml of compound in a final volume of 10 ml. Tubes were then incubated at 37° C. in the presence of 5% CO2 on a rotary shaker at 200 rpm. At the illustrated time points, aliquots were taken and diluted and 100 μL was plated onto yeast peptone dextrose (YPD) plates. YPD plates were incubated in a 30° C. incubator and, after 72 hours, colony forming units (CFU) were counted and recorded.

A further series deals with A549. The experiment in a line: A549 toxicity. The series is classed as cell-based.
For the next series, the system named is HepG2. In words: HepG2 toxicity. The class given is cell-based. The conditions noted are these: Tables 1-3.
Series [3] has as its system C. neoformans. In words: In vitro susceptibility (MIC80) assay. The class given is cell-based. Conditions: Cryptococcus neoformans; lowest concentration that inhibited 80% of growth; YNB pH 7.0, HEPES, 37° C., 5% CO2. On the procedure: MICs was determined following the methods of the Clinical and Laboratory Standards Institutes (CLSI) with modifications. Yeast Nitrogen Base (YNB) medium (pH 7.0, 0.2% glucose) buffered with HEPES was used for MIC studies. […] The compound was serially diluted from 16 to 0.03 μg/ml, in a 96-well plate. The inoculum was prepared as described in the CLSI protocol M27A3 guidelines. The plates were incubated at 37° C. with 5% CO2 for 24 to 72 h and the optical density was measure at 450 nm. The MICs was determined as the lowest concentration of the compound that inhibited 80% of growth compared to the control.

For another series, the system named is C. neoformans cells. In words: In vitro killing activity (K100) assay. The series is classed as cell-based, Cryptococcus neoformans. Conditions: Cryptococcus neoformans; minimum concentration that kills 100% of C. neoformans cells in 48 h. On the procedure: C. neoformans cells from a culture grown overnight were washed in PBS and resuspended in YNB buffered with HEPES at pH 7.4. The cells were counted, and 2×10^4 cells were incubated with different concentration of compounds in a final volume of 10 ml with a final concentration of 0.5% DMSO. The tubes were then incubated at 37° C. with 5% CO2 on a rotary shaker at 200 rpm. Aliquots were taken at time points and diluted, and […] were plated onto Yeast Extract-Peptone-Dextrose (YPD) plates. YPD plates were incubated in a 30° C. incubator and after 48 h, the numbers of CFU were counted and recorded.

In series [4] the test system is C. neoformans. In words: In vivo efficacy evaluation (survival study) in an animal model. The arrangement: species or system CBA/J mice. Conditions: 20 mg/kg/day orally (gavage); mice infected intranasally with 5×10^5 C. neoformans cells. On the procedure:
For survival study, 4-week old CBA/J (Envigo) male mice were used. They were divided as ten mice for each treatment or control group. Mice were infected intranasally with 20 μl of a suspension containing 5×10^5 C. neoformans cells and subsequently treated orally with 20 mg/kg/day of compound A15 and fluconazole as drug control in a final volume of 100 μl of PEG30% in a saline buffer. The untreated control group mice received 100 μl of PEG30% in a saline buffer. Gavage was used as route of administration. At the end of the experiment, 80% of the mice treated with compound A15 survived whereas, only 30% of the mice treated with fluconazole survived. Mice were fed ad libitum and monitored every day for discomfort and meningitis signs. Mice showing weight loss, lethargy, tremor or inability to reach food or water were sacrificed and survival was counted until that day (see FIG. 2).

In the series with C. neoformans [1], `O=C(N/N=C/c1cc(Br)cc(Br)c1O)c1ccc(Br)cc1` [Compound 13] registered an MIC of 0.06 mg/L (≈ 0.126 µM). The “Kapp*” value with C. neoformans [2] is −0.428. For the same compound, the A549 in the series with A549 (Example 2 table) is over 128.
In the series with C. neoformans [1], `O=C(N/N=C/c1ccc(Br)cc1O)c1ccc(Br)cc1` gave an IC80 of 0.06 mg/L (≈ 0.151 µM). For the same compound, the “Killing assay 48H (μg/mL)” value in the series on C. neoformans [2] is recorded as “Fungistatic”. Besides, the A549 in the series with A549 (Tables 1-3) came out at 16 µg/mL. The HepG2 in the series on HepG2 was determined as 32 µg/mL.
`[N-]=[N+]=Nc1ccc(C(=O)N/N=C/c2cc(Br)cc(Br)c2O)cc1` [Compound A45, 4-Azido-N′-(3,5-dibromo-2-hydroxybenzylidene)benzohydrazide] registered a melting point of 193 to 197 °C. This compound came in with an MIC80 in the series on C. neoformans [3] of 0.06 mg/L (≈ 0.137 µM).
For the compound `O=C(N/N=C/c1cc(Br)ccc1O)c1cccc(Br)c1` [Compound 2], the MIC against C. neoformans [1] turned out to be 0.25 mg/L (≈ 0.628 µM). Besides, in the series with C. neoformans [2], the Kill characteristics result is reported as “killed C. neoformans in a time dependent manner” and the “Kapp*” value is recorded as −0.142. The same compound came in with an A549 with A549 (Example 2 table) of 64.
For `COCc1ccc(C(=O)N/N=C/c2cc(Br)cc(Br)c2O)cc1` [Compound A15, 4-Methoxymethyl-N′-(3,5-dibromo-2-hydroxybenzylidene)benzohydrazide], in the series with C. neoformans [3], the MIC80 is 0.007 mg/L (≈ 0.0158 µM). The MFC against C. neoformans cells is 0.03 mg/L (≈ 0.0679 µM). Further, the “mice survived at the end of the experiment” value with C. neoformans [4] was 80%.
`O=C(N/N=C/c1cc(Br)ccc1O)c1cc(Br)cc(Br)c1O` [Compound 17] registered an MIC in the series on C. neoformans [1] of 0.5 mg/L (≈ 1.01 µM). Besides, the “Kapp*” value in the series on C. neoformans [2] was 0.077. Further, in the series with A549 (Example 2 table), the A549 worked out at 16.
As for `O=C(N/N=C/c1cc(Br)cc(Br)c1O)c1cnc2ccccc2c1` [drawing 62], in the series on C. neoformans [1], the concentration for an effect of 80% (IC80) stood at 0.25 mg/L (≈ 0.557 µM). Further, the “Killing assay 48H (μg/mL)” value in the series with C. neoformans [2] is reported as “Fungistatic”. This compound gave an A549 in the series on A549 (Tables 1-3) of 32 µg/mL. This compound had a HepG2 in the series on HepG2 of 32 µg/mL.
Regarding `OC(Cn1cncn1)(Cn1cncn1)c1ccc(F)cc1F` [fluconazole, reference compound], the “mice survived at the end of the experiment” value with C. neoformans [4] turned out to be 30%.
For `O=C(N/N=C/c1ccc(Br)cc1O)c1cc(Br)cc(Br)c1O` [drawing 79], the IC80 in the series with C. neoformans [1] was 0.06 mg/L (≈ 0.122 µM). Also, the “Killing assay 48H (μg/mL)” value with C. neoformans [2] is reported as “Fungistatic”. In addition, the A549 with A549 (Tables 1-3) turned out to be 32 µg/mL. For the same compound, the HepG2 in the series on HepG2 was found to be 32 µg/mL.
`Cc1ccccc1C(=O)N/N=C/c1cc(Br)ccc1O` [Compound 1]: in the series with C. neoformans [1], inhibition of growth (MIC) required 1 mg/L (≈ 3 µM). Also, in the series on C. neoformans [2], the Kill characteristics result was “killed C. neoformans in a concentration dependent manner” and the “Kapp*” value came to 0.024. The compound also registered an A549 in the series with A549 (Example 2 table) of 32.
In the series on C. neoformans [1], `O=C(N/N=C/c1ccc(Br)cc1O)c1cccc(F)c1F` displayed an IC80 of 0.5 mg/L (≈ 1.41 µM). The compound also returned an A549 in the series with A549 (Tables 1-3) of 16 µg/mL. In addition, in the series on HepG2, the HepG2 was 16 µg/mL.
With `Cc1ccc(O)c(/C=N/NC(=O)c2cc(Br)ccc2O)c1`, the 80% effect level with C. neoformans [1] (IC80) was put at 0.25 mg/L (≈ 0.716 µM). In the series on A549 (Tables 1-3), this compound registered an A549 of 16 µg/mL. The compound also displayed a HepG2 in the series on HepG2 of 16 µg/mL.
